Reference: patent publication US20070203212A1, “METHOD OF TREATING OSTEOARTHRITIS” (WARNER-LAMBERT COMPANY, priority 2002, published 2007)
Entries after “also recorded” stand apart in the source; their conditions may differ.

Assays:
Type in all cases: in vivo
[1] = test system: experimental osteoarthritis (anterior cruciate ligament section); assay: Experimental osteoarthritis in rabbit (EOA in Rabbit); conditions: 30 or 10 mg/kg/dose three times per day, 8 weeks; 'if these EOA studies were performed'
Description: Normal rabbits are anaesthetized and anteromedial incisions of the right knees performed. The anterior cruciate ligaments are visualized and sectioned. The wounds are closed and the animals are housed in individual cages, exercised, and fed ad libitum. Rabbits are given either vehicle (water) or 6-(5-carboxy-5-methyl-hexyloxy)-2,2-dimethyl-hexanoic acid, calcium salt, or a pharmaceutically acceptable salt thereof, (10 rabbits per group). Each group is dosed three times per day with the 6-(5-carboxy-5-methyl-hexyloxy)-2,2-dimethyl-hexanoic acid, calcium salt, or a pharmaceutically acceptable salt thereof, group receiving 30-mg/kg/dose or 10-mg/kg/dose. The rabbits are euthanized 8 weeks after surgery and the proximal end of the tibia and the distal end of the femur are removed from each animal.
The cartilage changes on the femoral condyles and tibial plateaus are graded separately under a dissecting microscope (Stereozoom, Bausch & Lomb, Rochester, N.Y.). […] The surface area changes are measured and expressed in mm^2. […]
Representative specimens of synovial membrane from the medial and lateral knee compartments are dissected from underlying tissues. […] The average score is calculated and considered as a unit for the whole knee. […]
Mean values and SEM are calculated and statistical analysis is done using the Mann-Whitney U-test.

[2] = test system: monoclonal antibody-induced arthritis; assay: Monoclonal antibody-induced arthritis (MAIA) mouse model, footpad and ankle swelling; conditions: p<0.05 (FIG. 8)
Description: In a typical MAIA experiment, groups of four mice were injected intraperitoneally (“i.p.”) with 0.4 mL (BALB/c and DBA/1 strains) or 0.8 mL (C57BL/6, 129X1/SvJ, C3H/HeJ, and C3H/FeJ strains) with a 10 mg/mL solution of Arthrogen-CIA Monoclonal Antibody Blend (Chemicon International, Inc.). Two days later, the mice were injected i.p. with 0.2 mL of a 0.25 mg/mL solution of LPS (lipopolysaccharide form Escherichia coli (“E. coli”) strain 0111B4) in PBS. Footpad and ankle size was assessed using a Dyer Digital Caliper (#655-030-4916) on the day of mAb injection, and every two days following LPS injection.

[3] = test system: monosodium iodoacetate (MIA)-induced osteoarthritis; assay: MIA rat model, chronic oral b.i.d. dosing: tibial plateau cartilage erosion analysis; conditions: for Decreased Erosion Size (statistically significant decrease in size of area of joint erosion) / SDCES (Significant Decrease In Cartilage Erosion Severity), Ridit analysis: 28 days; for SDCES (Significant Decrease In Cartilage Erosion Severity), Ridit analysis: calcium salt
Description: In a particular experiment, monosodium iodoacetate (“MIA”) (1 mg/joint) was injected through the infrapatellar ligament of the right knee of anesthetized male, Wistar rats. The contralateral control knee was injected with 50 μL of physiologic saline. The change in hind paw weight distribution, as determined by use of an incapacitance tester, between the right (arthritic) and left (contralateral control) knees was utilized as an index of functional limitation in the arthritic knee. Limitations in joint function were determined on Days 7, 14, and 28 following induction of arthritis. Following sacrifice, erosion severity was determined on the tibial plateaus from the arthritic joint. Histological analysis was also conducted on these samples.
The ridit analysis was used to determine differences in overall erosion severity. This parameter takes into account both the erosion grade (0=no erosion, I=erosion extending into the superficial or middle layers, or II=deep layer erosion), and area (small, medium and large, quantified by dividing the area of the largest erosion in each score into thirds) simultaneously.
After administering CI-1027 b.i.d. for 4 weeks, the rats were euthanized by CO2 administration. The soft tissue was removed from the right (arthritic) leg, the joint was disarticulated, and the meniscus was carefully removed to expose the surface of the tibial plateau. The tibia was removed and placed in physiologic saline until erosion analysis was performed. Tibial plateau erosions were analyzed the same day as the sacrifice as follows. Each plateau was dipped in India ink for approximately 30 seconds to help define the erosions, rinsed in saline, and blotted on a paper towel. A stereomicroscope equipped with a digital camera was used to photograph each plateau. The tibial plateaus were photographed and graded separately by two ordinary skilled persons using the following system:
Grade I=erosion extending into the superficial or middle layers;
Grade II=deep layer erosion; no cartilage, sub-chondral bone exposed.
The photographs were transferred to a computer for image analysis using a Zeiss KS 300 Image Analysis System to determine the total erosion area for each grade, expressed in square millimeters (“mm^2”). A RIDIT analysis (see above) was used to determine differences in overall erosion severity. This analysis takes into account both the erosion grade and area (small, medium and large, quantified by dividing the area of the largest erosion in each score into thirds) simultaneously.

[4] = 30 mg/kg PO BID, dose-response experiment

In the case of `CC(C)(CCCCOCCCCC(C)(C)C(=O)[O-])C(=O)[O-].[Ca+2]` [CI-1027, 6-(5-carboxy-5-methyl-hexyloxy)-2,2-dimethyl-hexanoic acid, calcium salt], the “lesion size on tibial plateaus / cartilage damage” value [1] is reported as “reduce the size of the lesion on the tibial plateaus”, the “change in mouse ankle joint and paw swelling” value ([2]; 100 mg/kg oral daily, Day 7) is reported as “inhibits a change in mouse ankle joint and paw swelling” and the “change in mouse ankle joint and paw swelling” value ([2]; 200 mg/kg oral daily, Days 4, 7 and 9) is reported as “inhibits a change in mouse ankle joint and paw swelling”. The “Decreased Erosion Size (statistically significant decrease in size of area of joint erosion)” value ([3]; 3 mg/kg PO BID) was “No”, the “SDCES (Significant Decrease In Cartilage Erosion Severity), Ridit analysis” value ([3]; 3 mg/kg PO BID) was “statistically significant inhibitory effect; also recorded: Yes^f” and the “Decreased Erosion Size (statistically significant decrease in size of area of joint erosion)” value ([3]; 10 mg/kg PO BID) was “Yes^c”. For the same compound, the “SDCES (Significant Decrease In Cartilage Erosion Severity), Ridit analysis” value ([3]; 10 mg/kg PO BID) was “significantly decrease cartilage erosion severity; also recorded: statistically significant inhibitory effect; also recorded: Yes^e”, the “decrease in total erosion area (regardless of grade)” value ([3]; 10 mg/kg PO b.i.d. 28 days, dose-response experiment (FIG. 5), statistically significant) was 62.4% and the “Decreased Erosion Size (statistically significant decrease in size of area of joint erosion)” value [3, 4] was “No”. For the same compound, the “SDCES (Significant Decrease In Cartilage Erosion Severity), Ridit analysis” value [3, 4] was “significantly decrease cartilage erosion severity; also recorded: significantly decreased the degree of structural damage to the cartilage; also recorded: statistically significant inhibitory effect; also recorded: Yes^d”, the “Decreased Erosion Size (statistically significant decrease in size of area of joint erosion)” value ([3]; 30 mg/kg PO BID, single-dose-level experiment) was “No” and the “SDCES (Significant Decrease In Cartilage Erosion Severity), Ridit analysis” value ([3]; 30 mg/kg PO BID, single-dose-level experiment (p = 0.100)) was “no statistically significant effect and No^g”. The “treated rats with no erosions” value ([3]; 30 mg/kg PO b.i.d. 28 days, first experiment, N=12) was 5 of the 12 and the “decrease in total erosion area (regardless of grade)” value ([3]; 30 mg/kg PO b.i.d. 28 days, first experiment, not statistically significant (p=0.179)) was 43%.
